Assay results as given in patent US11185527B2, “Methods and compositions relating to steroid hormone receptor-dependent cancers” (Wayne State University, priority 2017, dated 2021).
pIC50, pKd: −log10 of the molar value.

Assays:
[1] = Intracellular concentration of compounds by LC-MS/MS (relative stability); type: in vitro ADME; conditions: media concentration of 2 uM compound
Description: The suspended cells were sonicated to cell lysate, and then 1000 μL ethyl acetate was added. The mixture was vortex-mixed for 15 minutes and centrifuged at 14000 rpm at […] for 15 min. 950 uL of the supernatant was transferred to a new 1.7 mL centrifuge tube, and dried under a steam of nitrogen at room temperature. The sample was then reconstituted with 100 μL 40% acetonitrile, and 5 μL was injected into the LC-MS/MS system. Measured concentrations were normalized to cell protein concentrations.

22Rv1 CRPC cells = assay: Colony growth assay; type: cell-based, human
Description: FIGS. 4A, 4B, 4C, 4D, 4E, 4F, 4G, and 4H relate to inhibition of AR-dependent PC/CRPC clonogenic survival and cell growth by KCI807 and comparison with enzalutamide. FIG. 4A is an image of 22Rv1 cells that were seeded in phenol red-free growth media and treated with the indicated concentration of KCI807, replenishing the treatments every 48h. Colonies were stained with crystal violet 10 days after plating. Treatments were conducted in triplicate. Representative images are shown. FIG. 4B is a graph showing data from replicate colony formation assays shown in FIG. 4A are plotted as a histogram. Each bar represents the average number of colonies for each triplicate treatment. Cells were trypsinized, and 1000 cells/well were seeded in poly-D-lysine coated 6-well plates in phenol red-free regular growth media. The cells were treated with the indicated concentration of KCI807, which was replenished every 48h. The cells were grown at 37° C. in 5% CO2 for 10 days until colonies-grew to the desired size in the untreated control wells. Colonies were fixed with methanol and stained with crystal violet. Each treatment was conducted in triplicate and the number of colonies was counted using the GelCount™ colony counter and a 350 size cutoff.

Full length human AR = target: T1, Full length human AR (Homo sapiens, UniProt P10275); assay: Surface plasmon resonance, compound (analyte) binding to immobilized AR; conditions: SPR, compound as analyte
T1 construct: Full length human AR expressed in insect cells; purchased Abcam (Cambridge Mass.) ab82609; host or cells: insect cells
T1 sequence (P10275 1-920): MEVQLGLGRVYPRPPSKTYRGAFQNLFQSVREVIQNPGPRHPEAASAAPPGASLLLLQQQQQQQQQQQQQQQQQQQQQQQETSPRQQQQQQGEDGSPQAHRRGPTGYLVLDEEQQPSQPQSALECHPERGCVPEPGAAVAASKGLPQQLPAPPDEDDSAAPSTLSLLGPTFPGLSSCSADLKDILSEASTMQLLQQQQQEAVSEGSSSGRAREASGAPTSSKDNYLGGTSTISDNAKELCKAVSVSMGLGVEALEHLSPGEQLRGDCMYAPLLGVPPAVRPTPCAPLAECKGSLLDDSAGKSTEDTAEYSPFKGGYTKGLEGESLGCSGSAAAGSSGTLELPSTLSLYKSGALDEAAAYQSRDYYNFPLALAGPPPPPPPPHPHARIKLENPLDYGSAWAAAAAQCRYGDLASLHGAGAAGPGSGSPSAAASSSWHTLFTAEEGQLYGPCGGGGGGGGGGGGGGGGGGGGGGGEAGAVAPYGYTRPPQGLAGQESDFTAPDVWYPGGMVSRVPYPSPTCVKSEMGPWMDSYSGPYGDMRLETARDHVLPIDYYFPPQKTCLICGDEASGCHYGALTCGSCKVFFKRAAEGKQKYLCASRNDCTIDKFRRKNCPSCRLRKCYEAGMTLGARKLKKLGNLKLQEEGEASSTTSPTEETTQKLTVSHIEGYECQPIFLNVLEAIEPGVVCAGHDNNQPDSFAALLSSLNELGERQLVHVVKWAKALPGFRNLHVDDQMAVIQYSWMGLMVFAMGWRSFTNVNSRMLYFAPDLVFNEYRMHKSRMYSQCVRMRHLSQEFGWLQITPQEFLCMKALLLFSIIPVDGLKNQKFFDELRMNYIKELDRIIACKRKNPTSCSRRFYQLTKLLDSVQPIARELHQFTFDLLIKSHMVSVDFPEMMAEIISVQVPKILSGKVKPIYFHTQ
Description: FIG. 2A is a graph showing surface plasmon resonance (SPR) kinetic curves for quantitative analyses of KCI807 binding to AR.
The proteins were eluted with 200 mM imidazole and dialysed against […], pH 7.9 containing 10% glycerol, 20 mM KCl, 2 mM MgCl2, 0.2 mM EDTA, 0.5 mM benzamidine and 0.5 mM DTT.
Amine Coupling Kit, CM5 sensor chip and HBS-N buffer (GE Healthcare) were used for surface plasmon resonance (SPR) analysis. The rate and equilibrium binding constants of the interaction of AR with KCI807 was determined using Biacore 3000 (Biacore, Piscataway, N.J.). […] The immobilization involved activation of carboxymethyl groups on a dextran-coated chip by reaction with N-hydroxysuccinimide, followed by covalent bonding of the ligand (AR) to the chip surface via amide linkages. Reference surfaces were prepared in the same manner but blocked with ethanolamine and thus contained no ligand. […] The interaction (response units, RU) between analyte and ligand was recorded as the ligand RU minus the reference RU. Kinetic values were determined using BIAevaluation software (Biacore), and the data were fitted with the model showing closest match, according to methods described in Drescher DG et al., Methods Mol. Biol., (Clifton, N. J.). […] A 1:1 Langmuir binding model was generally selected, in which all the sensorgrams representing the different analyte concentrations were fitted simultaneously with the wide window of association and dissociation phases. Individual concentration curves were also evaluated to confirm the fitting data. The equilibrium dissociation constant (Kd) was calculated by kd=koff/kon. In all cases, baseline was established in the presence of the vehicle used for the compounds (DMSO) appropriately diluted in BBS-N buffer.

ZR-75-1 cells = assay: Breast cancer cell growth, MTT assay; type: cell-based
Description: FIG. 17A is a graph showing the effect on growth of various concentrations of 5,3′-Dihydroxyflavone on breast cancer cell line ZR-75-1 using the MTT assay.
Twenty four hours after plating the cells, they were treated with the indicated concentrations of the compound.

ELK1 = target: T2, ELK1 (Homo sapiens, UniProt P19419); assay: Surface plasmon resonance, compound binding to immobilized ELK1; conditions: SPR
T2 construct: His; made in house; host or cells: baculovirus infected Sf9 cells

C4-2 cells = assay: Cell growth assay; type: cell-based
From the text: FIG. 16C is a graph showing the effect of 5′-Fluoro-5,3′-Dihydroxyflavone at various concentrations on growth of C4-2 cells.

T2 sequence (P19419 whole entry): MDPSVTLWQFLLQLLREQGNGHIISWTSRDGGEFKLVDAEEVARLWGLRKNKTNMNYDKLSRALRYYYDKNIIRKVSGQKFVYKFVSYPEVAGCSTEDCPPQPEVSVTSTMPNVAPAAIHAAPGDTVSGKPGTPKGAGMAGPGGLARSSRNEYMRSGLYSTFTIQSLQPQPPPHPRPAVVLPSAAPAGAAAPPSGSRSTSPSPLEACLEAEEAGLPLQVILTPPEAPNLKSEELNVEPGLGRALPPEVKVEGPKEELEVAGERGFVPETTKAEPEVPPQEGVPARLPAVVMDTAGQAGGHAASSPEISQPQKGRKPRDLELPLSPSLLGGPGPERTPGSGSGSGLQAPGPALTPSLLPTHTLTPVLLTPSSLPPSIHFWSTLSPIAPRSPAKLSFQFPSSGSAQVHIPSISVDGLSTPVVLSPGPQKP

Compound	intracellular concentration between 1h and 6h [1]	colony growth inhibition (in words) (22Rv1 CRPC cells; 22Rv1, beyond 125 nM compound)	pIC50 (22Rv1 CRPC cells; Homo sapiens, 22Rv1, 10 days, treatment replenished every 48h, read-out: IC50 of colony growth inhibition)	koff (Full length human AR) [s⁻¹]	kon (Full length human AR) [M⁻¹ s⁻¹]	pKd (Full length human AR; kd=koff/kon, read-out: kd (dissociation constant))	growth of ZR-75-1 cells (ZR-75-1 cells)	binding to immobilized ELK1 (ELK1)	growth inhibition of C4-2 cells (C4-2 cells)
O=c1cc(-c2cccc(O)c2)oc2cccc(O)c12 [KCI807, 5,3′-dihydroxyflavone]	unchanged	virtually completely inhibited	7.48	0.00254	36700	7.16	did not inhibit the growth	did not bind	–
O=c1cc(-c2cc(O)cc(F)c2)oc2cccc(O)c12 [5′-fluoro-5,3′-dihydroxyflavone]	–	–	–	–	–	–	–	–	inhibited growth
